Tested on: SKBR3 cells
Assay: Plasma membrane tension and bending modulus mapping from MAxSIM height fluctuation data in live cells
Format: cell-based
Conditions: 5 μM for 30 minutes, FIG. 12C
From the text: Analysis of single-pixel-level plasma membrane biomechanics in live cells using the time-dependent membrane heights acquired by MAxSIM imaging: Utilizing MAxSIM technology, we mapped the membrane tension and bending modulus of plasma membranes in MCF7 cells (low HER2 expression) and SKBR3 (HER2 overexpression enabling constitutive HER2 activity). […] This approach, based on the Helfrich-Canham model, has been commonly employed in the literature, allowing the membrane tension (o) and bending modulus (K) to be linked to height fluctuations by the following equation.
where ? |h(q)|^2 ? represents the power spectral density of the membrane height fluctuations, q is the wave vector, kbT is the thermal energy, σ is the membrane tension, and κ is the bending modulus. From fitting the raw experimental data to this function, membrane tension (σ) and bending modulus (κ) are extracted (FIGS. 12A, 12B, 12C). To identify mechanical compartments, we will utilize and compare various cluster analysis methods we have tested, including K-means analysis, which groups similar data points into K clusters based on their proximity to cluster centers, and DBscan, a density-based clustering algorithm that groups data points based on their proximity.
1. Super-resolution imaging and single-molecule-tracking tools and mechanical property measurements: a. […]

SMILES: C/C1=C/C(=O)O[C@@H]2C[C@@H](CC[C@H](C)/C=C\C=C\CC1)O[C@@](O)([C@@H]1CSC(=O)N1)C2 [latrunculin A]
- mechanical compartmentalization (membrane tension and bending modulus) on the basal plasma membrane: significant reduction

— patent publication US20240345376A1, “SYSTEM AND METHOD FOR NANOSCALE AXIAL LOCALIZATION AND SUPER […] IMAGING WITH HEIGHT-[…]” (The George Washington University, priority 2021, published 2024)
